pIC50: −log10 of the molar value. Read-outs that look alike come from different tables or passages of the source.
How the values were obtained:
Type in all cases: cell-based
DOHH-2 = assay: CellTiterGlo viability, DLBCL cell line; details: single agent, 2 days; for pIC50: read-out: Abs IC50
Experimental: (§6) In addition, all media contained penicillin (100 IU/ml), streptomycin (100 μg/ml) and L-glutamine (2 mM). Unless otherwise mentioned, culture media and supplements were from Amimed/Bioconcept (Allschwil, Switzerland).
(§7) Cell lines were cultured at 37° C. in a humidified atmosphere containing 5% CO2 and expanded in T-75 flasks. In all cases cells were thawed from frozen stocks, expanded through ≥1 passage using appropriate dilutions, counted and assessed for viability using a CASY cell counter (Omni Life Science, Bremen, Germany) prior to plating 25 ul/well at the densities indicated in Table 1 into 384-well plates (Corning). All cell lines were determined to be free of mycoplasma contamination by PCR assay performed at Idexx Radii (Columbia, Mo., USA) and misidentification ruled out by assessment of a panel of 48 Small Nucleotide Polymorphisms (SNPs) at Asuragen (Austin, Tex., USA) or in-house.
(§8) Stock solutions of compounds were prepared at a concentration of 10 mM in DMSO (Sigma) and stored at −20° C. Where necessary to afford a full dose-response curve, the stock solutions were pre-diluted in DMSO to 1′000-fold the desired start concentration (see Table 2). On the day after cell seeding, eight 2.5-fold serial dilutions of each compound were dispensed, either individually or in all possible permutations in a checkerboard fashion, directly into the cell assay plates using a non-contact 300D Digital Dispenser (ILCAN, Mannedorf, Switzerland) as outlined in FIG. 4. The final concentration of DMSO was 0.2% in all wells.
(§9) Effects of the single agents as well as their checkerboard combinations on cell viability were assessed after 2 days of incubation at 37° C./5% CO2 by quantification of cellular ATP levels using CellTiterGlo (Promega, Madison, Wis., USA) at 25 μL reagent/well and n=2 replicate plates per condition. Luminescence was quantified on a M1000 multipurpose platereader (ILCAN, Mannedorf, Switzerland). The number/viability of cells at time of compound addition was likewise assessed and used to assess the degree of the population doubling time of a particular cell line.
(§10) Single agent IC50s were calculated using standard four-parametric curve fitting. […] All calculations were performed using the Combination Analysis Module in-house software. IC50 are defined as the compound concentration at which the CTG signal is reduced to 50% of that measured for the vehicle (DMSO) control.

SU-DHL-4 = assay: CellTiterGlo viability, DLBCL cell line; details: single agent, 2 days; for pIC50: read-out: Abs IC50
Experimental: as §6, §7, §8, §9
(§11) Single agent IC50s were calculated using standard four-parametric curve fitting. […] IC50 are defined as the compound concentration at which the CTG signal is reduced to 50% of that measured for the vehicle (DMSO) control.

SU-DHL-5 = assay: CellTiterGlo viability, DLBCL cell line; details: single agent, 2 days; for pIC50: read-out: Abs IC50
Experimental: as §6, §7, §8, §9, §11

SU-DHL-6 = assay: CellTiterGlo viability, DLBCL cell line; details: single agent, 2 days; for pIC50: read-out: Abs IC50
Experimental: as §6, §7, §8, §9, §11

Toledo = assay: CellTiterGlo viability, DLBCL cell line; details: for pIC50 / Max Inh: Toledo, single agent, 2 days; for pIC50: read-out: Abs IC50
Experimental: as §6, §7, §8, §9, §10

WSU-DLCL2 = assay: CellTiterGlo viability, DLBCL cell line; details: single agent, 2 days; for pIC50: read-out: Abs IC50
Experimental: as §6, §7, §8, §9, §11

BALL-1 = assay: CellTiterGlo viability, B-ALL cell line; details: single agent, 72 h
Experimental: (§1) In addition, all media contained penicillin (100 IU/ml), streptomycin (100 μg/ml) and L-glutamine (2 mM). Cell lines were cultured at 37° C. in a humidified atmosphere containing 5% CO2 and expanded in T-150 flasks. In all cases cells were thawed from frozen stocks, expanded through ≥1 passage using appropriate dilutions, counted and assessed for viability using a CASY cell counter prior to plating 150 ul/well at the densities indicated in Table 9 into 96-well plates. All cell lines were determined to be free of mycoplasma contamination in-house.
(§2) Stock solutions of compounds were prepared at a concentration of 5 mM in DMSO and stored at −20° C. In order to analyse the activity of the compounds as single agents, cells were seeded and treated with nine 2-fold serial dilutions of each compound dispensed individually directly into the cell assay plates. Effects of the compounds on cell viability were assessed after 3 days of incubation at 37° C./5% CO2 by quantification of cellular ATP levels using CellTiterGlo at 75 μL reagent/well. All the conditions were tested in triplicates. Luminescence was quantified on a multipurpose plate reader. Single agent IC50s were calculated using standard four-parametric curve fitting. IC50 is defined as the compound concentration at which the CTG signal is reduced to 50% of that measured for the vehicle (DMSO) control.
(§3) In order to analyse the activity of the compounds in combination, cells were seeded and treated with seven or eight 3.16-fold serial dilutions of each compound dispensed, either individually or in all possible permutations in a checkerboard fashion, directly into the cell assay plates as indicated in FIG. 1. Effects of the single agents as well as their checkerboard combinations on cell viability were assessed after 3 days of incubation at 37° C./5% CO2 by quantification of cellular ATP levels using CellTiterGlo at 75 μL reagent/well. For B-ALL cell lines, two independent experiments, each one performed in duplicates, were performed. For T-ALL cell lines, one experiment performed in triplicate was performed. Luminescence was quantified on a multipurpose plate reader.
(§4) Potential synergistic interactions between compound combinations were assessed using the Excess Inhibition 2D matrix according to the Loewe additivity model and are reported as Synergy Score (Lehar et al, Nat Biotechnol. 2009 July; 27(7): 659-666). All calculations were performed using Chalice TM Bioinformatics Software available in Horizon website. The doubling time indicated in Table 9 is the mean of the doubling time obtained in the different passages (in T-150 flasks) performed from the thawing of the cells to their seeding in the 96-well plates.

Kasumi-2 = assay: CellTiterGlo viability, B-ALL cell line; details: single agent, 72 h
Experimental: as §1, §2, §3, §4

NALM-21 = assay: CellTiterGlo viability, B-ALL cell line; details: single agent, 72 h
Experimental: as §1, §2, §3, §4

RS4;11 = assay: CellTiterGlo viability, B-ALL cell line; details: single agent, 72 h
Experimental: as §1, §2, §3, §4

SUP-B15 = assay: CellTiterGlo viability, B-ALL cell line; details: single agent, 72 h
Experimental: as §1, §2, §3, §4

TANOUE = assay: CellTiterGlo viability, B-ALL cell line; details: single agent, 72 h
Experimental: as §1, §2, §3, §4

TOM-1 = assay: CellTiterGlo viability, B-ALL cell line; details: single agent, 72 h
Experimental: as §1, §2, §3, §4

BE-13 = assay: CellTiterGlo viability, T-ALL cell line; details: single agent, 72 h
Experimental: as §1, §2, §3, §4

CML-T1 = assay: CellTiterGlo viability, T-ALL cell line; details: single agent, 72 h
Experimental: as §1, §2, §3, §4

DND-41 = assay: CellTiterGlo viability, T-ALL cell line; details: 72 h
Experimental: as §1, §2, §3, §4

MOLT-4 = assay: CellTiterGlo viability, T-ALL cell line; details: single agent, 72 h
Experimental: as §1, §2, §3, §4

TALL-104 = assay: CellTiterGlo viability, T-ALL cell line; details: single agent, 72 h
Experimental: as §1, §2, §3, §4

JVM-2 = assay: CellTiterGlo viability, Mantle Cell Lymphoma cell line; details: single agent, 2 days
Experimental: (§5) In addition, all media contained penicillin (100 IU/ml), streptomycin (100 μg/ml) and L-glutamine (2 mM). […] All cell lines were determined to be free of mycoplasma contamination in-house. Stock solutions of compounds were prepared at a concentration of 5 mM in DMSO and stored at −20° C. In order to analyse the activity of the compounds as single agents or in combination, cells were seeded and treated with seven or eight 3.16-fold serial dilutions of each compound dispensed, either individually or in all possible permutations in a checkerboard fashion, directly into the cell assay plates. […] All the conditions were tested in triplicates. Luminescence was quantified on a multipurpose plate reader. […] All calculations were performed using Chalice™ Bioinformatics Software available in Horizon website. Single agent IC50s were calculated using standard four-parametric curve fitting.

Jeko = assay: as above; details: single agent, 2 days
Experimental: as §5

Mino = assay: as above; details: single agent, 2 days
Experimental: as §5

REC-1 = assay: as above; details: single agent, 2 days
Experimental: as §5

Z-138 = assay: as above; details: single agent, 2 days
Experimental: as §5

SMILES	Max Inh (DOHH-2) [%]	Max Inh (SU-DHL-4) [%]	Max Inh (SU-DHL-5) [%]	Max Inh (SU-DHL-6) [%]	Max Inh (Toledo) [%]	Max Inh (WSU-DLCL2) [%]	pIC50 (Kasumi-2)	pIC50 (NALM-21)	pIC50 (TANOUE)	pIC50 (TOM-1)	pIC50 (BE-13)	pIC50 (CML-T1)	pIC50 (TALL-104)	Max Inh (JVM-2) [%]	Max Inh (Jeko) [%]	Max Inh (Mino) [%]	Max Inh (REC-1) [%]	Max Inh (Z-138) [%]	other results
Cl.O=C(c1cc(-c2cc3c(cc2C(=O)N2Cc4ccccc4C[C@H]2CN2CCOCC2)OCO3)n2c1CCCC2)N(c1ccccc1)c1ccc(O)cc1 [Compound 1, HCl, N-(4-hydroxyphenyl)-3-{6-[((3S)-3-(4-morpholinylmethyl)-3,4-dihydro-2(1H)-isoquinolinyl)carbonyl]-1,3-benzodioxol-5-yl}-N-phenyl-5,6,7,8-tetrahydro-1-indolizine carboxamide hydrochloride]	101.9	96.9	49.6	101.0	101.9	99.3	6.68	7.02	4.77	7.72	5.17	4.82	4.80	38.0	35.0	91.0	78.0	25.0	pIC50 (DOHH-2; Homo sapiens, 48 h): 6.81; pIC50 (SU-DHL-4; Homo sapiens, 48 h): 6.07; pIC50 (SU-DHL-5; Homo sapiens, 48 h): ≤ 5.00; pIC50 (SU-DHL-6; Homo sapiens, 48 h): 6.21; pIC50 (Toledo; Homo sapiens, 48 h): 6.86; pIC50 (WSU-DLCL2; Homo sapiens, WSUDLCL2, 48 h): 5.99; pIC50 (BALL-1; Homo sapiens): 7.72; pIC50 (RS4;11; Homo sapiens): 7.70; pIC50 (SUP-B15; Homo sapiens): 7.60; pIC50 (DND-41; DND41, single agent): 5.05; pIC50 (MOLT-4; Homo sapiens): 5.48; pIC50 (JVM-2; Homo sapiens, 48 h): < 5.30; pIC50 (Jeko; 48 h): < 5.30; pIC50 (Mino; Homo sapiens, 48 h): 7.04; pIC50 (REC-1; Homo sapiens, Rec1, 48 h): 6.15; pIC50 (Z-138; Homo sapiens, 48 h): < 5.30
COc1ccccc1-c1nccc(COc2ccccc2C[C@@H](Oc2ncnc3sc(-c4ccc(F)cc4)c(-c4ccc(OCCN5CCN(C)CC5)c(Cl)c4C)c23)C(=O)O)n1 [Compound 3, (2R)-2-{[(5Sa)-5-{3-chloro-2-methyl-4-[2-(4-methylpiperazin-1-yl)ethoxy]phenyl}-6-(4-fluorophenyl)thieno[2,3-d]pyrimidin-4-yl]oxy}-3-(2-{[2-(2-methoxyphenyl)pyrimidin-4-yl]methoxy}phenyl)propanoic acid]	98.3	99.5	98.2	99.1	45.8	99.0	7.52	7.92	5.18	7.62	7.82	5.22	7.36	19.0	100.0	100.0	99.0	96.0	pIC50 (DOHH-2): 8.91; pIC50 (SU-DHL-4): 7.75; pIC50 (SU-DHL-5): 9.03; pIC50 (SU-DHL-6): 8.67; growth inhibition (Toledo; Toledo cells, Compound 3 at the highest concentration tested, combination with the second lowest concentration of Compound 1 (FIG. 4B)): 46%; pIC50 (Toledo): ≤ 6.00; pIC50 (WSU-DLCL2): 8.10; pIC50 (BALL-1): 7.20; pIC50 (RS4;11): 7.10; pIC50 (SUP-B15): 7.11; pIC50 (DND-41; single agent): 5.15; pIC50 (MOLT-4): 7.59; pIC50 (JVM-2): < 5.70; pIC50 (Jeko): 7.64; pIC50 (Mino): 8.10; pIC50 (REC-1): 7.11; pIC50 (Z-138): 6.35

Source: US20190240225A1, “COMBINATION OF A BCL-2 INHIBITOR AND A MCL-1 INHIBITOR, USES AND PHARMACEUTICAL COMPOSITIONS THEREOF” (LES LABORATOIRES SERVIER, priority 2016, published 2019)
